From ChEMBL document CHEMBL2439961, “Synthesis and evaluation of the cell cycle arrest and CT DNA interaction properties of 4β-amino-4'-O-demethyl-4-deoxypodophyllotoxins” (Bioorg Med Chem, 2013)
The source made the active and inactive calls. The rule behind the calls is not given here.

What was measured:
[1] = system: A549; assay: Cytotoxicity against human A549 cells after 48 hrs by MTT assay; format: functional, cell-based; conditions: A549, 48 h
[2] = system: HCT-8; assay: Cytotoxicity against human HCT8 cells after 48 hrs by MTT assay; format: functional, cell-based; conditions: HCT-8, 48 h
[3] = system: HeLa; assay: Cytotoxicity against human HeLa cells after 48 hrs by MTT assay; format: functional, cell-based
[4] = system: HepG2; assay: Cytotoxicity against human HepG2 cells after 48 hrs by MTT assay; format: functional, cell-based; conditions: HepG2, 48 h
[5] = system: HeLa; assay: Induction of apoptosis in human HeLa cells assessed as early apoptotic cells at 0.25 uM after 24 hrs using annexin V-FITC/PI and Hoechst 33258 staining by FACS analysis (reference value: 2.34%); format: functional
[6] = system: HeLa; assay: Cell cycle arrest in human HeLa cells assessed as accumulation at sub-G1 phase at 1 uM after 24 hrs using propidium iodide staining by FACS analysis (reference value: 0%); format: functional
[7] = system: DNA; assay: Binding affinity to calf thymus DNA assessed as reduction in intensity of positive band at 5 to 40 ug/ml after 24 hrs by circular dichroism analysis; format: nucleic-acid assay; conditions: Bos taurus
[8] = system: HeLa; assay: Cell cycle arrest in human HeLa cells assessed as accumulation at G2/M phase after 24 hrs using propidium iodide staining by FACS analysis; format: functional, cell-based
[9] = system: HeLa; assay: Induction of apoptosis in human HeLa cells assessed as cell shrinkage, nuclear fragmentation and condensation dispersed throughout cytoplasm at 0.5 uM after 48 hrs by immunofluorescence analysis; format: functional, cell-based
[10] = system: HeLa; assay: Increase of CDC2 protein level in human HeLa cells Western blotting analysis; format: functional, cell-based
[11] = system: HeLa; assay: Cell cycle arrest in human HeLa cells assessed as accumulation at G1 phase at 1 uM after 24 hrs using propidium iodide staining by FACS analysis (reference value: 48.5%); format: functional
[12] = system: HeLa; assay: Increase of caspase-3 protein level in human HeLa cells Western blotting analysis; format: functional, cell-based
[13] = system: HeLa; assay: Cell cycle arrest in human HeLa cells assessed as accumulation at G1 phase at 0.5 uM after 24 hrs using propidium iodide staining by FACS analysis (reference value: 48.5%); format: functional
[14] = system: HeLa; assay: Cell cycle arrest in human HeLa cells assessed as accumulation at S phase at 1 uM after 24 hrs using propidium iodide staining by FACS analysis (reference value: 27.1%); format: functional
[15] = system: HeLa; assay: Induction of morphological changes in human HeLa cells by immunofluorescence analysis; format: functional, cell-based; conditions: TDE = time-dependent effect
[16] = system: HeLa; assay: Induction of apoptosis in human HeLa cells assessed as late apoptotic cells at 0.5 uM after 24 hrs using annexin V-FITC/PI and Hoechst 33258 staining by FACS analysis (reference value: 2.39%); format: functional
[17] = system: HeLa; assay: Induction of microtubule depolymerization in human HeLa cells assessed as short and dense microtubule networks at 0.5 uM after 48 hrs using DAPI staining by immunofluorescence analysis; format: cell-based
[18] = system: HeLa; assay: Increase of p53 protein level in human HeLa cells Western blotting analysis; format: functional, cell-based
[19] = system: HeLa; assay: Cell cycle arrest in human HeLa cells assessed as accumulation at S phase at 0.5 uM after 24 hrs using propidium iodide staining by FACS analysis (reference value: 27.1%); format: functional
[20] = system: DNA; assay: Binding affinity to calf thymus DNA at 0.5 mM after 5 mins by fluorescence analysis; format: nucleic-acid assay; conditions: Bos taurus
[21] = system: HeLa; assay: Cell cycle arrest in human HeLa cells assessed as accumulation at G2/M phase at 1 uM after 24 hrs using propidium iodide staining by FACS analysis (reference value: 24.4%); format: functional
[22] = system: HeLa; assay: Induction of apoptosis in human HeLa cells assessed as late apoptotic cells at 0.25 uM after 24 hrs using annexin V-FITC/PI and Hoechst 33258 staining by FACS analysis (reference value: 2.39%); format: functional
[23] = system: HeLa; assay: Induction of morphological changes in human HeLa cells after 48 hrs by immunofluorescence analysis; format: functional, cell-based
[24] = system: HeLa; assay: Induction of apoptosis in human HeLa cells assessed as early apoptotic cells at 0.5 uM after 24 hrs using annexin V-FITC/PI and Hoechst 33258 staining by FACS analysis (reference value: 2.34%); format: functional
[25] = system: HeLa; assay: Increase of cyclin-B1 protein level in human HeLa cells Western blotting analysis; format: functional, cell-based
[26] = system: HeLa; assay: Induction of microtubule depolymerization in human HeLa cells assessed as short and dense microtubule networks at 0.5 uM using DAPI staining by immunofluorescence analysis; format: cell-based; conditions: TDE = time-dependent effect
[27] = system: HeLa; assay: Cell cycle arrest in human HeLa cells assessed as accumulation at G2/M phase at 0.5 uM after 24 hrs using propidium iodide staining by FACS analysis (reference value: 24.4%); format: functional
[28] = system: HeLa; assay: Cell cycle arrest in human HeLa cells assessed as accumulation at sub-G1 phase at 0.5 uM after 24 hrs using propidium iodide staining by FACS analysis (reference value: 0%); format: functional
[29] = system: HeLa; assay: Induction of apoptosis in human HeLa cells assessed as cell shrinkage, nuclear fragmentation and condensation dispersed throughout cytoplasm at 0.5 uM by immunofluorescence analysis; format: functional, cell-based; conditions: TDE = time-dependent effect

COc1cc([C@@H]2c3cc4c(cc3[C@@H](Nc3ccc(S(=O)(=O)NC5CCCC5)cc3)[C@H]3COC(=O)[C@H]23)OCO4)cc(OC)c1O gave an IC50 [1] of 52.4 µM, an IC50 [2] of 38.7 µM and an IC50 [3] of 35.2 µM. For the same compound, the IC50 [4] was 47.6 µM.
With COc1cc([C@@H]2c3cc4c(cc3[C@@H](N3CCN(C)CC3)[C@H]3COC(=O)[C@H]23)OCO4)cc(OC)c1O the IC50 [1] was 26.4 µM, the IC50 [2] was 12.4 µM and the IC50 [3] was 3.4 µM. The IC50 [4] was 2.72 µM.
Compound COc1cc([C@@H]2c3cc4c(cc3[C@@H](N3CCN(c5ccc(F)cc5)CC3)[C@H]3COC(=O)[C@H]23)OCO4)cc(OC)c1O has an IC50 [1] of 27.3 µM, an IC50 [2] of 14.3 µM and an IC50 [3] of 13.6 µM. It also gave an IC50 [4] of 20.6 µM.
Compound COc1cc([C@@H]2c3cc4c(cc3[C@@H](O[C@@H]3O[C@@H]5CO[C@@H](C)O[C@H]5[C@H](O)[C@H]3O)[C@H]3COC(=O)[C@H]23)OCO4)cc(OC)c1O [ETOPOSIDE] has an IC50 [2] of 6.54 µM, an IC50 [3] of 4.73 µM and an IC50 [4] of 11.5 µM.
For COc1cc([C@@H]2c3cc4c(cc3[C@@H](N3CCN(C5CCCC5)CC3)[C@H]3COC(=O)[C@H]23)OCO4)cc(OC)c1O, the IC50 [1] was 14.5 µM, the IC50 [2] was 10.2 µM and the IC50 [3] was 11.6 µM. The IC50 [4] was 8.42 µM.
For COc1cc([C@@H]2c3cc4c(cc3[C@@H](NCCNc3ccc([N+](=O)[O-])cc3)[C@H]3COC(=O)[C@H]23)OCO4)cc(OC)c1O, the IC50 [1] was 25.8 µM, the IC50 [2] was 14.8 µM and the IC50 [3] was 14.8 µM. It also gave an IC50 [4] of 32.3 µM.
Work on CCN1CCN([C@@H]2c3cc4c(cc3[C@@H](c3cc(OC)c(O)c(OC)c3)[C@H]3C(=O)OC[C@@H]32)OCO4)CC1 yielded an IC50 [1] of 28.8 µM, an IC50 [2] of 19.8 µM and an IC50 [3] of 3.81 µM. For the same compound, the IC50 [4] was 5.41 µM.
COc1cc([C@@H]2c3cc4c(cc3[C@@H](Nc3ccc(S(=O)(=O)N5CCN(c6ccc(F)cc6)CC5)cc3)[C@H]3COC(=O)[C@H]23)OCO4)cc(OC)c1O showed an IC50 [1] of 57.3 µM, an IC50 [2] of 30.4 µM and an IC50 [3] of 21.9 µM. The IC50 [4] was 54.4 µM.
In the case of COc1cc([C@@H]2c3cc4c(cc3[C@@H](N3CCN(c5ccc([N+](=O)[O-])cc5)CC3)[C@H]3COC(=O)[C@H]23)OCO4)cc(OC)c1O, the Activity [5] is reported as 3.99%, the Activity [6] is reported as 4.9% and the Activity [7] is reported as “Active”. For the same compound, the IC50 [1] was 0.16 µM, the Activity [8] was “Dose-dependent effect” and the Activity [9] was “Active”. For the same compound, the Activity [10] was “Dose-dependent effect”, the Activity [11] was 0.1% and the IC50 [2] was 2.12 µM. The Activity [12] was “Dose-dependent effect”, the IC50 [3] was 0.07 µM and the Activity [13] was 5.9%. The Activity [14] was 28.6%, the Activity [15] was “tde” and the Activity [16] was 4.76%. The Activity [17] was “Active”, the Activity [18] was “Dose-dependent effect” and the Activity [19] was 58.7%. For the same compound, the Activity [20] was “Active”, the Activity [21] was 71.4% and the IC50 [4] was 1.43 µM. For the same compound, the Activity [22] was 3.54%, the Activity [23] was “Active” and the Activity [24] was 4.88%. The Activity [25] was “Dose-dependent effect”, the Activity [26] was “tde” and the Activity [27] was 35.4%. For the same compound, the Activity [28] was 1% and the Activity [29] was “tde”.
COc1cc([C@@H]2c3cc4c(cc3[C@@H](NCCCNc3ccc([N+](=O)[O-])cc3)[C@H]3COC(=O)[C@H]23)OCO4)cc(OC)c1O gave an IC50 [1] of 43.2 µM, an IC50 [2] of 19.7 µM and an IC50 [3] of 10.5 µM. It also gave an IC50 [4] of 22.4 µM.
Compound COc1cc([C@@H]2c3cc4c(cc3[C@@H](Nc3ccc(S(=O)(=O)N5CCN(c6ccc([N+](=O)[O-])cc6)CC5)cc3)[C@H]3COC(=O)[C@H]23)OCO4)cc(OC)c1O has an IC50 [1] of 42.3 µM, an IC50 [2] of 32.5 µM and an IC50 [3] of 27.8 µM. The IC50 [4] was 38.6 µM.
